How the values were obtained:
[1] = molecular target: T1, Farnesoid X receptor (FXR) (Homo sapiens, UniProt Q96RI1); test: AlphaScreen coactivator recruitment with purified FXR-LBD; also luciferase reporter (EC50 […]) and M265I/Y369F mutagenesis; type: binding
T1 construct: gene NR1H4; 6His-FXR-LBD (residues 243-472aa)
T1 sequence (Q96RI1 257-486): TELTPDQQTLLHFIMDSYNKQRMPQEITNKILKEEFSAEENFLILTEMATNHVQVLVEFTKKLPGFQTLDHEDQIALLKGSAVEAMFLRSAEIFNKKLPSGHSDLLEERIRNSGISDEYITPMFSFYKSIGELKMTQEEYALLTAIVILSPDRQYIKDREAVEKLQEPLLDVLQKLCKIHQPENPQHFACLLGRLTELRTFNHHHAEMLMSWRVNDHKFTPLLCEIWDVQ

[2] = molecular target: T1, Farnesoid X receptor (FXR); test: AlphaScreen coactivator recruitment with purified FXR-LBD; luciferase reporter; type: biochemical

Row | Structure (SMILES) | EC50 [1] [µM] | AlphaScreen coactivator recruitment with purified FXR-LBD; luciferase reporter [2]
1 | CC1=CC(=O)C[C@@H]2[C@@](C)(CC/C(C)=C/CO)[C@H](C)CC[C@@]12C [2-oxokolavenol] | ~3.7 | –
2 | CC1=CCC[C@@H]2[C@@](C)(CC/C(C)=C/CO)[C@H](C)CC[C@@]12C [kolavenol] | – | motifs bound to FXR-LBD in response to 2-oxokolavenol, 2-oxokolavelool, kolavenol, or OCA in the AlphaScreen assay
